In US9243021B2, “Galactoside inhibitor of galectins” (University of Edinburgh, priority 2012, dated 2016):

Experiments:
[1] = tested on: bleomycin induced lung fibrosis; experiment: Model of bleomycin-induced lung fibrosis; type: in vivo, mouse; conditions: female C57/Bl6 mice, intratracheal on days 18, 20, 22 and 24, lungs harvested day 26
Experimental: Female C57/Bl6 mice (10-14 weeks old) were anaesthetized with halothane, and bleomycin or saline was administered intratracheally (33 μg in 50 μl of saline) and lungs were harvested on day 26. TD139 was instilled into the lungs of mice on days 18, 20, 22 and 24 of bleomycin induced lung injury. Fibrosis was assessed by histological score of collagen stained lung sections and by total collagen content by Sircol assay.
Mice were treated with bleomycin (bleo) or saline (control) and bleomycin treated mice were treated with 200 mg/kg pirfenidone twice daily on days 18-24. TD139 was administered intratracheally on days 18, 20, 22 and 24. Lungs were harvested on day 26.
Histological lung inflammation and fibrosis score were carried out in Masson's trichrome stained sections. Inflammation (peribronchiolar, perivascular, and alveolar wall thickness) scored in >5 random fields at magnification×630 using the following system (peribronchiolar and perivascular, 1=no cells, 2=<20 cells, 3=20-100 cells, 4=>100 cells; alveolar wall thickness, 1=no cells, 2=2-3 cells thick, 3=4-5 cells thick, 4=>5 cells thick). The combined inflammatory score was the sum of these scores. Fibrosis score was evaluated as the area of the section positively stained for collagen (1=none, 2=<10%, 3=<50%, 4=>50%). Only fields where the majority of the field was composed of alveoli were scored. […]

β-catenin activation = experiment: TGF-β1-induced β-catenin activation in primary alveolar epithelial cells (western blot); type: cell-based, mouse; conditions: primary alveolar epithelial cells from WT mice, TGF-β1, 10 μM TD139
Experimental: Primary alveolar epithelial cells from WT mice were plated and treated with TGF-β1 in the presence or absence of 10 μM TD139. FIG. 1D) Cells were lysed and analyzed for active β-catenin, total β-catenin and β-actin by western blot.
Treated and control mouse type II lung alveolar epithelial cells (AECs) were extracted following a standard method. Briefly, 1 ml of 50 U/ml dispase (BD Biosciences) was administered intratracheally into perfused lungs followed by instillation of 0.5 ml of 1% low melting point agarose. The agarose within the upper airways was allowed to set on ice for 2 minutes and the lungs were placed in 4 ml 50 U/ml dispase for 45 min at room temperature. The lung lobes minus the upper airways were then dispersed in DMEM containing 50 μg/ml DNAse I (Sigma-Aldrich, UK). The cell suspension was passed through a 100 μm cell strainer and the cells washed in DMEM followed by resuspension in DMEM containing 10% FCS. The cell suspension was plated onto tissue culture plastic for 1 h to allow any contaminated fibroblasts and macrophages to adhere. Non-adherent epithelial cells were counted and cultured for 2 days on tissue culture plastic or cover-slips pre-coated with 5 μg/ml collagen (AMS Biotechnology) and 10 μg/ml fibronectin (Sigma-Aldrich), Cells were washed three times in PBS before treatment. […]

galectin-3 = galectin-3 (Homo sapiens, UniProt P17931)
[2] = half-life by route of administration; type: in vivo; conditions: mice

Chain of galectin-3 (P17931 whole entry): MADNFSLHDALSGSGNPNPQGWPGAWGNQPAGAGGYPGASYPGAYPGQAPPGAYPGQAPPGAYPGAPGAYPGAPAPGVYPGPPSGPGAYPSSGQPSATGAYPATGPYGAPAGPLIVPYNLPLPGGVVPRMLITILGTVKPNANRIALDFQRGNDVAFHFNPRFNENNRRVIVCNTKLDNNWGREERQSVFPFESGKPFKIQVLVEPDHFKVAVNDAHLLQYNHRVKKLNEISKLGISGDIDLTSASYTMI

OC[C@H]1O[C@@H](S[C@@H]2O[C@H](CO)[C@H](O)[C@H](n3cc(-c4cccc(F)c4)nn3)[C@H]2O)[C@H](O)[C@@H](n2cc(-c3cccc(F)c3)nn2)[C@H]1O [TD139, Bis-{3-deoxy-3-[4-(3-fluorophenyl)-1H-1,2,3-triazol-1-yl]-β-D-galactopyranosyl}sulfane]
bleomycin induced lung fibrosis in vivo [1]: blocked | TGF-β-induced β-catenin activation in vitro (β-catenin activation): blocked | galectin-3 inhibitor (galectin-3): inhibitor | half-life, pulmonary route compared with i.v. or s.c. routes [2]: considerably longer half-life
